Results from ChEMBL document CHEMBL3044812, “QSAR analysis of Mur B inhibitors with antibacterial properties discussing role of physico-chemical parameters” (Med Chem Res, 2011).

assay: Inhibition of Escherichia coli murB-mediated eduction of enolpyruvyl uridine diphosphate N-acetylglucosamine to uridine diphosphate N-acetyl muramic acid

SMILES | pIC50
O=C(c1c(O)n(-c2ccc(Cl)cc2)n(-c2ccc(Cl)cc2)c1=O)C1CCCCC1 | 4.62
COc1ccc(C(=O)c2c(O)n(-c3ccc(Cl)cc3)n(-c3ccc(Cl)cc3)c2=O)cc1 | 4.796
O=C(c1ccc(Cl)cc1)c1c(O)n(-c2ccc(Cl)cc2)n(-c2ccc(Cl)cc2)c1=O | 4.863
O=C(c1ccc(C(F)(F)F)cc1)c1c(O)n(-c2ccc(Cl)cc2)n(-c2ccc(Cl)cc2)c1=O | 4.824
O=C(Nc1ccc(C(F)(F)F)cc1)c1c(O)n(-c2cccc(Cl)c2)n(-c2cccc(Cl)c2)c1=O | 5.061
O=C(Nc1ccccc1)c1c(O)n(-c2ccccc2)n(-c2ccccc2)c1=O | 4.268
O=C(Nc1ccc(Cl)c(Cl)c1)c1c(O)n(-c2ccc(Cl)c(Cl)c2)n(-c2ccc(Cl)c(Cl)c2)c1=O | 5.319
O=C(Nc1ccc(Cl)cc1)c1c(O)n(-c2ccc(Cl)cc2)n(-c2ccc(Cl)cc2)c1=O | 4.959
O=C(Nc1ccc(Cl)c(Cl)c1)c1c(O)n(-c2ccc(Cl)cc2)n(-c2ccc(Cl)cc2)c1=O | 4.886
COc1ccc(NC(=O)c2c(O)n(-c3ccc(Cl)cc3)n(-c3ccc(Cl)cc3)c2=O)cc1 | 5
CCCCOc1ccc(C(=O)c2c(O)n(-c3ccc(Cl)cc3)n(-c3ccc(Cl)cc3)c2=O)cc1 | 5.347
O=C(c1ccc(OC(F)(F)F)cc1)c1c(O)n(-c2ccc(Cl)cc2)n(-c2ccc(Cl)cc2)c1=O | 5.268
O=C(c1ccc(-c2ccccc2)cc1)c1c(O)n(-c2ccc(Cl)cc2)n(-c2ccc(Cl)cc2)c1=O | 5.215
O=C(c1cccs1)c1c(O)n(-c2ccc(Cl)cc2)n(-c2ccc(Cl)cc2)c1=O | 5.237
COc1ccc(CC(=O)c2c(O)n(-c3ccc(Cl)cc3)n(-c3ccc(Cl)cc3)c2=O)cc1 | 4.398
O=C(c1ccccc1)c1c(O)n(-c2ccc(Cl)cc2)n(-c2ccc(Cl)cc2)c1=O | 5.009
O=C(c1cccc(C(F)(F)F)c1)c1c(O)n(-c2ccc(Cl)cc2)n(-c2ccc(Cl)cc2)c1=O | 5.26
O=C(c1cccc(Cl)c1)c1c(O)n(-c2ccc(Cl)cc2)n(-c2ccc(Cl)cc2)c1=O | 5.229
O=C(c1ccccc1Cl)c1c(O)n(-c2ccc(Cl)cc2)n(-c2ccc(Cl)cc2)c1=O | 4.914
N#Cc1ccc(C(=O)c2c(O)n(-c3ccc(Cl)cc3)n(-c3ccc(Cl)cc3)c2=O)cc1 | 4.882
CCOC(=O)c1cccc(C(=O)c2c(O)n(-c3ccc(Cl)cc3)n(-c3ccc(Cl)cc3)c2=O)c1 | 4.754
O=C(c1ccc(O)cc1)c1c(O)n(-c2ccc(Cl)cc2)n(-c2ccc(Cl)cc2)c1=O | 4.66
O=C(CCc1ccccc1)c1c(O)n(-c2ccc(Cl)cc2)n(-c2ccc(Cl)cc2)c1=O | 5.018
CC(C(=O)c1c(O)n(-c2ccc(Cl)cc2)n(-c2ccc(Cl)cc2)c1=O)c1ccc(Br)cc1 (stereo not drawn) | 5.252
O=C(Nc1ccc(Cl)cc1)c1c(O)n(-c2ccccc2)n(-c2ccccc2)c1=O | 4.268
O=C(Nc1ccc(Cl)cc1)c1c(O)n(-c2cccc(Cl)c2)n(-c2cccc(Cl)c2)c1=O | 5.066
Cc1ccc(NC(=O)c2c(O)n(-c3ccc(Cl)c(Cl)c3)n(-c3ccc(Cl)c(Cl)c3)c2=O)cc1 | 5.319
O=C(Nc1ccc(Br)cc1)c1c(O)n(-c2ccccc2)n(-c2ccccc2)c1=O | 4.377
